The source of these data is patent US8481732B2 (Incyte Corporation, priority 2009, dated 2013).

Broadly, the IC50 is the concentration that gives 50% inhibition.

T1 sequence (Q9H3N8 whole entry): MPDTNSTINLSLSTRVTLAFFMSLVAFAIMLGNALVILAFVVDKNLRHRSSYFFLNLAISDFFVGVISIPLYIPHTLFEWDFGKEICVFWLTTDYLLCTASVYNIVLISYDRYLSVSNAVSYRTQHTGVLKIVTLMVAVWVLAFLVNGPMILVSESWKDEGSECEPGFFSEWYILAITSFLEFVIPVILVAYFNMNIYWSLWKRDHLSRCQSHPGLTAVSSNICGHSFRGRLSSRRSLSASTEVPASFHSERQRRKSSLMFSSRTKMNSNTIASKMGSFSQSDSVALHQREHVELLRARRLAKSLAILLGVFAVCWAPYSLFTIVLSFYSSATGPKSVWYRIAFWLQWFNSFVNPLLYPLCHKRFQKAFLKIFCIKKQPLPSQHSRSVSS

The assay has as its target T1, histamine H4 receptor (Homo sapiens, UniProt Q9H3N8).
T1 construct: expressed in transfected cells; host or cells: HEK293SFM cells (membrane preparation)
The assay is described as follows: H4 Membrane Binding Assay (3H-Histamine displacement). To be noted: membranes of recombinant HEK293SFM cells, 10 nM 3H-Histamine, 1.5 hr at room temperature. The protocol: Recombinant HEK293SFM cells expressing human H1, H2, H3, H4 or mouse H4 were harvested (Packard Filtermate Harvester) in ice-cold Tris-HCl, (50 mM, pH 7.5, Sigma) with protease inhibitors (Roche) and homogenized with a Polytron homogenizer. The homogenate was centrifuged for 5 minutes at 1000 g to remove nuclei and unbroken cells. The supernatant was centrifuged at 50000 g for 30 minutes, and the resulting pellet was re-suspended in ice-cold Tris-HCl (50 mM, pH 7.5). […] Nonspecific binding was determined by inclusion of 1000× unlabeled ligands. The bound radioactivity was separated by filtration through polyethyleneimine-treated GF/B filters (Perkin Elmer). The filters were washed eight times with ice-cold Tris-HCl (50 mM, pH 7.5), and radioactivity retained on the filters was measured by liquid scintillation counting. The binding data were evaluated with Prism.
For the compound `CN1CCN(c2cc(-c3ccc4c(c3)CN(C(=O)CC3CC3)CC4)nc(N)n2)CC1` [Example 106, 4-[2-(Cyclopropylacetyl)-1,2,3,4-tetrahydroisoquinolin-7-yl]-6-(4-methylpiperazin-1-yl)pyrimidin-2-amine], the IC50 is 69 nM. On to `CO[C@@H]1Cc2ccccc2[C@@H]1NC(=O)N1CCc2ccc(-c3cc(N4CCN(C)CC4)nc(N)n3)cc2C1` [Example 57, 7-[2-Amino-6-(4-methylpiperazin-1-yl)pyrimidin-4-yl]-N-[(1S,2R)-2-methoxy-2,3-dihydro-1H-inden-1-yl]-3,4-dihydroisoquinoline-2(1H)-carboxamide], for which the IC50 was 93 nM.

Take `CN1CCN(c2nc(N)nc3cc(C(=O)NCC4CC4)ccc23)CC1` [Example 25, 2-Amino-N-(cyclopropylmethyl)-4-(4-methylpiperazin-1-yl)quinazoline-7-carboxamide]: the IC50 was 579 nM. `COC(=O)NC(CC(=O)N1CCc2ccc(-c3cc(N4CCN(C)CC4)nc(N)n3)cc2C1)C1CCCCC1` (stereo not shown) [Example 114, Methyl{3-[7-[2-amino-6-(4-methylpiperazin-1-yl)pyrimidin-4-yl]-3,4-dihydroisoquinolin-2(1H)-yl]-1-cyclohexyl-3-oxopropyl}carbamate]: the IC50 came out at 109 nM. In the case of `CN1CCN(c2cc(-c3ccc4c(c3)CN(C(=O)Nc3ccc(C#N)cn3)CC4)nc(N)n2)CC1` [Example 43, 7-[2-Amino-6-(4-methylpiperazin-1-yl)pyrimidin-4-yl]-N-(5-cyanopyridin-2-yl)-3,4-dihydroisoquinoline-2(1H)-carboxamide], the IC50 is 58 nM.

With `CN1CCN(c2cc(-c3cc4c(cc3F)CCN(C(=O)NC3CCCCC3)C4)nc(N)n2)CC1` [Example 76, 7-[2-Amino-6-(4-methylpiperazin-1-yl)pyrimidin-4-yl]-N-cyclohexyl-6-fluoro-3,4-dihydroisoquinoline-2(1H)-carboxamide], the IC50 was found to be 77 nM. Then `CN1CCN(c2cc(-c3ccc4c(c3)CN(C(=O)CC(C)(C)C#N)CC4)nc(N)n2)CC1` [Example 121, 4-[7-[2-Amino-6-(4-methylpiperazin-1-yl)pyrimidin-4-yl]-3,4-dihydroisoquinolin-2(1H)-yl]-2,2-dimethyl-4-oxobutanenitrile], with 39 nM.

For the compound `COC(=O)[C@H](Cc1ccc(OC(=O)NC(C)C)cc1)NC(=O)c1ccc2c(N3CCN(C)CC3)nc(N)nc2c1` [Example 135, (S)-Methyl 2-(2-amino-4-(4-methylpiperazin-1-yl)quinazoline-7-carboxamido)-3-(4-(isopropylcarbamoyloxy)phenyl)propanoate], the IC50 came out at 70 nM. Take `CN1CCN(c2nc(N)nc3cc(C(=O)N[C@@H](Cc4ccc(-c5ccc(F)c(C(F)(F)F)c5)cc4)C(=O)N(C)C)ccc23)CC1` [Example 159, 2-Amino-N-((1S)-2-(dimethylamino)-1-{[4′-fluoro-3′-(trifluoromethyl)biphenyl-4-yl]methyl}-2-oxoethyl)-4-(4-methylpiperazin-1-yl)quinazoline-7-carboxamide]: the half-inhibitory concentration (IC50) amounted to 26 nM.

Take `CN1CCN(c2cc(-c3ccc4c(c3)CN(C(=O)OC3CCOC3)CC4)nc(N)n2)CC1` (stereo not shown) [Example 79, Tetrahydrofuran-3-yl 7-[2-amino-6-(4-methylpiperazin-1-yl)pyrimidin-4-yl]-3,4-dihydroisoquinoline-2(1H)-carboxylate]: the IC50 turned out to be 364 nM. To `CN1CCN(c2cc(-c3ccc4c(c3)CN(C(=O)NC3CCC(C(=O)N(C)C)CC3)CC4)nc(N)n2)CC1` (stereo not shown) [Example 54, 7-[2-Amino-6-(4-methylpiperazin-1-yl)pyrimidin-4-yl]-N-{4-[(dimethylamino)carbonyl]cyclohexyl}-3,4-dihydroisoquinoline-2(1H)-carboxamide] belongs 439 nM. Then `CN1CCN(c2cc(-c3ccc4c(c3)CN(C(=O)NC3CCC(F)(F)CC3)CC4)nc(N)n2)CC1` [Example 63, 7-[2-Amino-6-(4-methylpiperazin-1-yl)pyrimidin-4-yl]-N-(4,4-difluorocyclohexyl)-3,4-dihydroisoquinoline-2(1H)-carboxamide], with 37 nM. Then `CN1CCN(c2nc(N)nc3cc(C(=O)Nc4ccc(Oc5ccccc5)cc4)ccc23)CC1` [Example 35, 2-Amino-4-(4-methylpiperazin-1-yl)-N-(4-phenoxyphenyl)quinazoline-7-carboxamide], with 287 nM; and `CC(C)OC(=O)N1CCC(CC(=O)N2CCc3ccc(-c4cc(N5CCN(C)CC5)nc(N)n4)cc3C2)C1` (stereo not shown) [Example 119, Isopropyl 3-{2-[7-[2-amino-6-(4-methylpiperazin-1-yl)pyrimidin-4-yl]-3,4-dihydroisoquinolin-2(1H)-yl]-2-oxoethyl}pyrrolidine-1-carboxylate], with 70 nM; and `Cc1cc2c(cc1-c1cc(N3CCN(C)CC3)nc(N)n1)CN(C(=O)Nc1ccc(Cl)cc1)CC2` [Example 77, 7-[2-Amino-6-(4-methylpiperazin-1-yl)pyrimidin-4-yl]-N-(4-chlorophenyl)-6-methyl-3,4-dihydroisoquinoline-2(1H)-carboxamide], with 95 nM. As to `CN1CCN(c2nc(N)nc3cc(C(=O)N4CCc5c(cccc5OCc5ccc(C#N)cc5)C4)ccc23)CC1` [Example 210, 4-((2-(2-Amino-4-(4-methylpiperazin-1-yl)quinazoline-7-carbonyl)-1,2,3,4-tetrahydroisoquinolin-5-yloxy)methyl)benzonitrile], the IC50 was found to be 41 nM.

Take `CC(Oc1cccc(CC(NC(=O)c2ccc3c(N4CCN(C)CC4)nc(N)nc3c2)C(=O)N(C)C)c1)c1cccc(C(F)(F)F)c1` (stereo not shown) [Example 176, 2-Amino-N-[2-(dimethylamino)-2-oxo-1-(3-{1-[3-(trifluoromethyl)phenyl]ethoxy}benzyl)ethyl]-4-(4-methylpiperazin-1-yl)quinazoline-7-carboxamide]: the IC50 was 51 nM.

`CCOC(=O)[C@H](CCc1ccccc1)NC(=O)c1ccc2c(N3CCN(C)CC3)nc(N)nc2c1` [Example 130, Ethyl (2S)-2-({[2-amino-4-(4-methylpiperazin-1-yl)quinazolin-7-yl]carbonyl}amino)-4-phenylbutanoate]: the IC50 stood at 71 nM. For `COc1ccc(-c2ccc(CC(NC(=O)c3ccc4c(N5CCN(C)CC5)nc(N)nc4c3)C(=O)N(C)C)cn2)cc1` (stereo not shown) [Example 164, 2-Amino-N-(-2-(dimethylamino)-1-{[6-(4-methoxyphenyl)pyridin-3-yl]methyl}-2-oxoethyl)-4-(4-methylpiperazin-1-yl)quinazoline-7-carboxamide], the IC50 was 57 nM.

With `CC(Cc1ccc(OC2CCCC2)cc1)NC(=O)c1ccc2c(N3CCN(C)CC3)nc(N)nc2c1` (stereo not shown) [Example 143, 2-Amino-N-{2-[4-(cyclopentyloxy)phenyl]-1-methylethyl}-4-(4-methylpiperazin-1-yl)quinazoline-7-carboxamide], the IC50 amounted to 37 nM. To `CN1CCN(c2nc(N)nc3cc(C(=O)NC4CCCc5ccc(OCc6ccc(C#N)cc6)cc54)ccc23)CC1` (stereo not shown) [Example 205, 2-Amino-N-(7-(4-cyanobenzyloxy)-1,2,3,4-tetrahydronaphthalen-1-yl)-4-(4-methylpiperazin-1-yl)quinazoline-7-carboxamide] belongs 11 nM. Take `CN1CCN(c2nc(N)nc3cc(C(=O)N[C@@H](Cc4ccc(-c5cccc(Cl)c5Cl)cc4)C(=O)N(C)C)ccc23)CC1` [Example 162, 2-Amino-N-[(1S)-1-[(2′,3′-dichlorobiphenyl-4-yl)methyl]-2-(dimethylamino)-2-oxoethyl]-4-(4-methylpiperazin-1-yl)quinazoline-7-carboxamide]: the IC50 was determined as 10 nM. Regarding `CN1CCN(c2nc(N)nc3cc(C(=O)N[C@@H](Cc4ccc(OC(=O)Nc5cccc(Cl)c5)cc4)C(=O)N(C)C)ccc23)CC1` [Example 165, 4-[(2S)-2-({[2-Amino-4-(4-methylpiperazin-1-yl)quinazolin-7-yl]carbonyl}amino)-3-(dimethylamino)-3-oxopropyl]phenyl (3-chlorophenyl)carbamate], the IC50 was found to be 16 nM. Take `CNC(=O)c1ccc2c(N3CCN(C)CC3)nc(N)nc2c1` [Example 26, 2-Amino-N-methyl-4-(4-methylpiperazin-1-yl)quinazoline-7-carboxamide]: the IC50 came to 495 nM.

As to `CN1CCN(c2cc(-c3ccc4c(c3)CN(C(=O)NC3CCC(C(F)(F)F)CC3)CC4)nc(N)n2)CC1` (stereo not shown) [Example 64, 7-[2-Amino-6-(4-methylpiperazin-1-yl)pyrimidin-4-yl]-N-[4-(trifluoromethyl)cyclohexyl]-3,4-dihydroisoquinoline-2(1H)-carboxamide], the IC50 was found to be 43 nM. In the case of `CN1CCN(c2cc(-c3ccc4c(c3)CNCC4)nc(N)n2)CC1` [Example 1, 4-(4-Methylpiperazin-1-yl)-6-(1,2,3,4-tetrahydroisoquinolin-7-yl)pyrimidin-2-amine], the IC50 was determined as 198 nM. On to `CN1CCN(c2nc(N)nc3cc(C(=O)NC(Cc4cccc(Oc5cccc(C#N)c5)c4)C(=O)N(C)C)ccc23)CC1` (stereo not shown) [Example 174, 2-Amino-N-(3-(3-(3-cyanophenoxy)phenyl)-1-(dimethylamino)-1-oxopropan-2-yl)-4-(4-methylpiperazin-1-yl)quinazoline-7-carboxamide], for which the IC50 amounted to 23 nM.

Regarding `CN1CCN(c2nc(N)nc3cc(C(=O)NCc4ccc(Oc5ccccc5)cc4)ccc23)CC1` [Example 34, 2-Amino-4-(4-methylpiperazin-1-yl)-N-(4-phenoxybenzyl)quinazoline-7-carboxamide], the 50% inhibitory concentration (IC50) is 106 nM.
